Laboratory results taken from ChEMBL document CHEMBL4507320, “Data for DCP probe NVS-MALT1” (2021).

Experiments:
[1] = target: Serine/threonine-protein kinase MRCK gamma (Homo sapiens) (UniProt Q6DT37); conditions: Compound concentration 1000.0 nM
[2] = target: Serine/threonine-protein kinase haspin (Homo sapiens) (UniProt Q8TF76); conditions: Compound concentration 1000.0 nM
[3] = target: Calcium/calmodulin-dependent protein kinase type 1 (Homo sapiens) (UniProt Q14012); conditions: Compound concentration 1000.0 nM
[4] = target: Ephrin type-B receptor 3 (Homo sapiens) (UniProt P54753); conditions: Compound concentration 1000.0 nM
[5] = target: Mu-type opioid receptor (Homo sapiens) (UniProt P35372); conditions: Compound concentration 10.0 uM
[6] = target: Mitogen-activated protein kinase 13 (Homo sapiens) (UniProt O15264); conditions: Compound concentration 1000.0 nM
[7] = target: Cyclin-dependent kinase 18 (Homo sapiens) (UniProt Q07002); conditions: Compound concentration 1000.0 nM
[8] = target: Mitogen-activated protein kinase kinase kinase 12 (Homo sapiens) (UniProt Q12852); conditions: Compound concentration 1000.0 nM
[9] = target: Ephrin type-B receptor 2 (Homo sapiens) (UniProt P29323); conditions: Compound concentration 1000.0 nM
[10] = target: Serine/threonine-protein kinase TAO2 (Homo sapiens) (UniProt Q9UL54); conditions: Compound concentration 1000.0 nM
[11] = target: Myosin-IIIa (Homo sapiens) (UniProt Q8NEV4); conditions: Compound concentration 1000.0 nM
[12] = target: Dual specificity mitogen-activated protein kinase kinase 4 (Homo sapiens) (UniProt P45985); conditions: Compound concentration 1000.0 nM
[13] = target: Dual specificity protein kinase TTK (Homo sapiens) (UniProt P33981); conditions: Compound concentration 1000.0 nM
[14] = target: Wee1-like protein kinase (Homo sapiens) (UniProt P30291); conditions: Compound concentration 1000.0 nM
[15] = target: High affinity nerve growth factor receptor (Homo sapiens) (UniProt P04629); conditions: Compound concentration 1000.0 nM
[16] = target: Casein kinase I isoform epsilon (Homo sapiens) (UniProt P49674); conditions: Compound concentration 1000.0 nM
[17] = target: Phosphatidylinositol 5-phosphate 4-kinase type-2 gamma (Homo sapiens) (UniProt Q8TBX8); conditions: Compound concentration 1000.0 nM
[18] = target: Vascular endothelial growth factor receptor 1 (Homo sapiens) (UniProt P17948); conditions: Compound concentration 1000.0 nM
[19] = target: Citron Rho-interacting kinase (Homo sapiens) (UniProt O14578); conditions: Compound concentration 1000.0 nM
[20] = target: Serine/threonine-protein kinase D1 (Homo sapiens) (UniProt Q15139); conditions: Compound concentration 1000.0 nM
[21] = target: Maternal embryonic leucine zipper kinase (Homo sapiens) (UniProt Q14680); conditions: Compound concentration 1000.0 nM
[22] = target: Interleukin-1 receptor-associated kinase 4 (Homo sapiens) (UniProt Q9NWZ3); conditions: Compound concentration 1000.0 nM
[23] = target: Casein kinase I isoform gamma-1 (Homo sapiens) (UniProt Q9HCP0); conditions: Compound concentration 1000.0 nM
[24] = target: Serine/threonine-protein kinase PLK4 (Homo sapiens) (UniProt O00444); conditions: Compound concentration 1000.0 nM
[25] = target: Cyclin-dependent kinase 16 (Homo sapiens) (UniProt Q00536); conditions: Compound concentration 1000.0 nM
[26] = target: Activated CDC42 kinase 1 (Homo sapiens) (UniProt Q07912); conditions: Compound concentration 1000.0 nM
[27] = target: Muscarinic acetylcholine receptor M5 (Homo sapiens) (UniProt P08912); conditions: Compound concentration 10.0 uM
[28] = target: Bone morphogenetic protein receptor type-1B (Homo sapiens) (UniProt O00238); conditions: Compound concentration 1000.0 nM
[29] = target: Rho-associated protein kinase 1 (Homo sapiens) (UniProt Q13464); conditions: Compound concentration 1000.0 nM
[30] = target: Macrophage colony-stimulating factor 1 receptor (Homo sapiens) (UniProt P07333); conditions: Compound concentration 1000.0 nM
[31] = target: Phosphatidylinositol 4,5-bisphosphate 3-kinase catalytic subunit alpha isoform (Homo sapiens) (UniProt P42336); conditions: Compound concentration 1000.0 nM
[32] = target: Myotonin-protein kinase (Homo sapiens) (UniProt Q09013); conditions: Compound concentration 1000.0 nM
[33] = target: Ribosomal protein S6 kinase alpha-2 (Homo sapiens) (UniProt Q15349); conditions: Compound concentration 1000.0 nM
[34] = target: Ephrin type-A receptor 4 (Homo sapiens) (UniProt P54764); conditions: Compound concentration 1000.0 nM
[35] = target: Serine/threonine-protein kinase 36 (Homo sapiens) (UniProt Q9NRP7); conditions: Compound concentration 1000.0 nM
[36] = target: Cyclin-dependent kinase 8 (Homo sapiens) (UniProt P49336); conditions: Compound concentration 1000.0 nM
[37] = target: 5-hydroxytryptamine receptor 2B (Homo sapiens) (UniProt P41595); conditions: Compound concentration 10.0 uM
[38] = target: Receptor tyrosine-protein kinase erbB-3 (Homo sapiens) (UniProt P21860); conditions: Compound concentration 1000.0 nM
[39] = target: Serine/threonine-protein kinase WNK3 (Homo sapiens) (UniProt Q9BYP7); conditions: Compound concentration 1000.0 nM
[40] = target: Serine/threonine-protein kinase Nek6 (Homo sapiens) (UniProt Q9HC98); conditions: Compound concentration 1000.0 nM
[41] = target: Tyrosine-protein kinase ABL2 (Homo sapiens) (UniProt P42684); conditions: Compound concentration 1000.0 nM
[42] = target: Dual specificity protein kinase CLK3 (Homo sapiens) (UniProt P49761); conditions: Compound concentration 1000.0 nM
[43] = system: Phosphatidylinositol 4,5-bisphosphate 3-kinase catalytic subunit alpha isoform (Homo sapiens), P42336 [M1043I]; conditions: Compound concentration 1000.0 nM
[44] = target: Ribosomal protein S6 kinase alpha-1 (Homo sapiens) (UniProt Q15418); conditions: Compound concentration 1000.0 nM
[45] = target: Platelet-derived growth factor receptor beta (Homo sapiens) (UniProt P09619); conditions: Compound concentration 1000.0 nM
[46] = target: Calcium/calmodulin-dependent protein kinase type II subunit delta (Homo sapiens) (UniProt Q13557); conditions: Compound concentration 1000.0 nM

Chain of Casein kinase I isoform gamma-1 (Homo sapiens) (Q9HCP0 whole entry, looked up, canonical isoform): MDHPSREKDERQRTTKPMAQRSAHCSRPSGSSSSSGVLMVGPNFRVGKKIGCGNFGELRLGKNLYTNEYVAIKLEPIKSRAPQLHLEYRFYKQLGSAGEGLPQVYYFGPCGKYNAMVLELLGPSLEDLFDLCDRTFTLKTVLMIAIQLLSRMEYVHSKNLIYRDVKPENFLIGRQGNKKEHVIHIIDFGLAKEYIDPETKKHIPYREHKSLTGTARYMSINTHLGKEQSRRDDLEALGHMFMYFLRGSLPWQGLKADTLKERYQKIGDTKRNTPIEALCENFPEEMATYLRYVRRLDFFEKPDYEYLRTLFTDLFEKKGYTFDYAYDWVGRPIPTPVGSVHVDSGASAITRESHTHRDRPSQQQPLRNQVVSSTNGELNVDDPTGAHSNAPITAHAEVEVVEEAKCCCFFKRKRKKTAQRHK
Chain of Phosphatidylinositol 4,5-bisphosphate 3-kinase catalytic subunit alpha isoform (Homo sapiens) (P42336 whole entry, canonical isoform): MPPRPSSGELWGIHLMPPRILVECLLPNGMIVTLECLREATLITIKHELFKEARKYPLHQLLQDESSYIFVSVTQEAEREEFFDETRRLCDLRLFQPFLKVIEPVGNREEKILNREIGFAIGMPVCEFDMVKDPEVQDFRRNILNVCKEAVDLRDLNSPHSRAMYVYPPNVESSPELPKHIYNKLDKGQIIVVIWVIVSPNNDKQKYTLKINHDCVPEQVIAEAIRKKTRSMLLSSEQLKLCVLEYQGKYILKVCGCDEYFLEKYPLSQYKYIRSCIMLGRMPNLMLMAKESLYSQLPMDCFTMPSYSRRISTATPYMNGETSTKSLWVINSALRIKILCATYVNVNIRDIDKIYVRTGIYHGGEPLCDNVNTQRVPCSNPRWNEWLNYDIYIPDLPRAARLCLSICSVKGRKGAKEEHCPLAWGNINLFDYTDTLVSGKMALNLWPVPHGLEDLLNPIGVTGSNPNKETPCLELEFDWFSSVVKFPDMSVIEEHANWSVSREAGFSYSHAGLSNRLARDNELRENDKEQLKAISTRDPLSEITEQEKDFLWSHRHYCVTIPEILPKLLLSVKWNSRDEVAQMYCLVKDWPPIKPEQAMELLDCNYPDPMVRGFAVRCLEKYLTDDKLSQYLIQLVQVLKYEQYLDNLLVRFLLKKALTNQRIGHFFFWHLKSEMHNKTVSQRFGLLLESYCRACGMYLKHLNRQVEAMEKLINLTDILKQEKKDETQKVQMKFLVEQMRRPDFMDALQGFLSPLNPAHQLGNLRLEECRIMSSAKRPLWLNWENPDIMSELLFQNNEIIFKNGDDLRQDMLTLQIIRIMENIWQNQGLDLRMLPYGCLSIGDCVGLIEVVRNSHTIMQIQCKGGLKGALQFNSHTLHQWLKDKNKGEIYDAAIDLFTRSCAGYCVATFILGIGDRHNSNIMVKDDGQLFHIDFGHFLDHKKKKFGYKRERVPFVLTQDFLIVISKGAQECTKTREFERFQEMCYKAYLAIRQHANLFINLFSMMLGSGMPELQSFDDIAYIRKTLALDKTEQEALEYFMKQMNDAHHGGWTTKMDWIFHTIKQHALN
Chain of Maternal embryonic leucine zipper kinase (Homo sapiens) (Q14680 whole entry, looked up): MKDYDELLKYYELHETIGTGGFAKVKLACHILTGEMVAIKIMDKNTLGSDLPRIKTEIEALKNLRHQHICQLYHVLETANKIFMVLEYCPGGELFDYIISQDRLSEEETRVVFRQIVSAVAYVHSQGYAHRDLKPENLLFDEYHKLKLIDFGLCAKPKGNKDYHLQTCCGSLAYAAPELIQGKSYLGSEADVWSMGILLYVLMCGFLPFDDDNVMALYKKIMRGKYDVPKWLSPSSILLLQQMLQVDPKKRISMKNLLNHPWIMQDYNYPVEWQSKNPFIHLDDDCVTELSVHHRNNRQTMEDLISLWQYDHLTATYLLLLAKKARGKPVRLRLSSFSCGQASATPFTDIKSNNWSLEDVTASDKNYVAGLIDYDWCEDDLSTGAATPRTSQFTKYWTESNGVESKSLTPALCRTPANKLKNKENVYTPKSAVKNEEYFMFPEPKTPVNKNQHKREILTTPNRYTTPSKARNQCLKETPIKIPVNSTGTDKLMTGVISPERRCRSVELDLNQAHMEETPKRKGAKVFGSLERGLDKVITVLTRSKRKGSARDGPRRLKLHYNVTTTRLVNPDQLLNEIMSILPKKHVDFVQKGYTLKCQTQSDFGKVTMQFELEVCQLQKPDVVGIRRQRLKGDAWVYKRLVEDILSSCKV
Chain of Platelet-derived growth factor receptor beta (Homo sapiens) (P09619 whole entry): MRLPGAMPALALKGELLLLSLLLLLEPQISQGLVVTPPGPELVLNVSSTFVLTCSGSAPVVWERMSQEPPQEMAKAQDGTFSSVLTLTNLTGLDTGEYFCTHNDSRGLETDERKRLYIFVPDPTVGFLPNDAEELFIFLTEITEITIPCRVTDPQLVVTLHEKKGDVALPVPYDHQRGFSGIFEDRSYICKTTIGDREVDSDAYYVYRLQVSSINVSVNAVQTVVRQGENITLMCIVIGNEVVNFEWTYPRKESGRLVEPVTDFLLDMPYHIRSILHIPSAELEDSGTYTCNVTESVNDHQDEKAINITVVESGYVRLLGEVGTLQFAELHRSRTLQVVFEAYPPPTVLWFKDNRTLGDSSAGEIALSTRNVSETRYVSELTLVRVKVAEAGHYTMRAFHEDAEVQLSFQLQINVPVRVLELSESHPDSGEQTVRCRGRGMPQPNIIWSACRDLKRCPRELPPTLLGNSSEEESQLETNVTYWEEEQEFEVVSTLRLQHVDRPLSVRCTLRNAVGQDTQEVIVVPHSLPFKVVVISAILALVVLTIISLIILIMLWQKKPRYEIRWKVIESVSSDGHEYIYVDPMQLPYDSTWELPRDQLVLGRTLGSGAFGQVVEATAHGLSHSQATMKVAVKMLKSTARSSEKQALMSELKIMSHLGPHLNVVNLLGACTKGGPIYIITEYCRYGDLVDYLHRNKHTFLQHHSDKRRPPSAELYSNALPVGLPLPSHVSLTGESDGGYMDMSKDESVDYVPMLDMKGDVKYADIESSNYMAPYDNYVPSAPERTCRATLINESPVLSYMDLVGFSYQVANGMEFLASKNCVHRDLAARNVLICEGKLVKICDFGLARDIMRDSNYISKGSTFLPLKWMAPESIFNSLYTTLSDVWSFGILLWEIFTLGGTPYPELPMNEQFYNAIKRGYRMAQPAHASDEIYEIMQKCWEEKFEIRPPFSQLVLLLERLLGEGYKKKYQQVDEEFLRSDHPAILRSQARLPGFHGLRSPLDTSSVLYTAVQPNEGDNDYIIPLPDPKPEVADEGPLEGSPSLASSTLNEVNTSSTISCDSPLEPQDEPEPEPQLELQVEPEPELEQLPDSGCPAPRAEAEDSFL
Chain of Interleukin-1 receptor-associated kinase 4 (Homo sapiens) (Q9NWZ3 whole entry, canonical isoform): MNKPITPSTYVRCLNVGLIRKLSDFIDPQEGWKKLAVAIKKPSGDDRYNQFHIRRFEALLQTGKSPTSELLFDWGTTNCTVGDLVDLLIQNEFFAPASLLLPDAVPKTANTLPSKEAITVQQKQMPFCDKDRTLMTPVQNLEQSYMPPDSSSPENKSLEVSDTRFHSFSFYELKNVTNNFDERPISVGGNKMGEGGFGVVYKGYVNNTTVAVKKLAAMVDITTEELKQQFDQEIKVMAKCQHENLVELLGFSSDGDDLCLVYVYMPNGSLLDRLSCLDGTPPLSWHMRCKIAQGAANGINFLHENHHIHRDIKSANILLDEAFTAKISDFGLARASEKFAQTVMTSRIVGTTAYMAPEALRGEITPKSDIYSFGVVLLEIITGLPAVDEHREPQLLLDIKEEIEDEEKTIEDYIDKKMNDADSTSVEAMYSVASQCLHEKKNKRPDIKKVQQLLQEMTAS
Chain of Serine/threonine-protein kinase Nek6 (Homo sapiens) (Q9HC98 whole entry): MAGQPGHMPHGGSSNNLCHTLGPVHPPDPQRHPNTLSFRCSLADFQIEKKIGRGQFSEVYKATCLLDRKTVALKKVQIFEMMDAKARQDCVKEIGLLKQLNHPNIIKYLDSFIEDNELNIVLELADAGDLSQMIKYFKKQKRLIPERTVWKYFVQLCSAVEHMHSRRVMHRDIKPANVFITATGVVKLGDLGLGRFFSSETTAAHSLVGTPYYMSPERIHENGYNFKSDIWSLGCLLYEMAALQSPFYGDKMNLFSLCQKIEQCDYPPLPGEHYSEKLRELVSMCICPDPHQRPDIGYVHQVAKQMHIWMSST
Chain of Mu-type opioid receptor (Homo sapiens) (P35372 whole entry): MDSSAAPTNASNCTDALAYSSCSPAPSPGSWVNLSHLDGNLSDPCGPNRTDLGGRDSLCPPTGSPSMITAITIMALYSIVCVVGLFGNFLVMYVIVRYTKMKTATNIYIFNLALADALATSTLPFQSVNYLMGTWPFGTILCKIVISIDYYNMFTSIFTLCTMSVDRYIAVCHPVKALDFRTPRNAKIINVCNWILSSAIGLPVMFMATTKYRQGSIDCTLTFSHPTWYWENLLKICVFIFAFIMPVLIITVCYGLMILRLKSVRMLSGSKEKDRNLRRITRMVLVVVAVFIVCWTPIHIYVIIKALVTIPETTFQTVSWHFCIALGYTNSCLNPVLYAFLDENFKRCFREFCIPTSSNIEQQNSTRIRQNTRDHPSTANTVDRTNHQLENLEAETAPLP
Chain of Phosphatidylinositol 5-phosphate 4-kinase type-2 gamma (Homo sapiens) (Q8TBX8 whole entry): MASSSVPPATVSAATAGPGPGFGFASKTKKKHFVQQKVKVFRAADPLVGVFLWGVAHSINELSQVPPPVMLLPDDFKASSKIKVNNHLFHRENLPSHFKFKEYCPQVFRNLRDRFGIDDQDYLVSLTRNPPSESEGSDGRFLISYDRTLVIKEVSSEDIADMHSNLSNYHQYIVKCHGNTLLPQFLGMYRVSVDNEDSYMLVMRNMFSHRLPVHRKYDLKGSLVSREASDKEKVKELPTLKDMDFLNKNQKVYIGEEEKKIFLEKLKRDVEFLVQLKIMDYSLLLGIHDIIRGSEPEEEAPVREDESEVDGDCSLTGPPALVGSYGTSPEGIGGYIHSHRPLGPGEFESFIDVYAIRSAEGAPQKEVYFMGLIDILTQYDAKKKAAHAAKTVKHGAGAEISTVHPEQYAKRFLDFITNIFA

Q: Which results are given for `CO[C@@H](C)c1c(Nc2ccc([C@H](N(C)C(=O)C3CCS(=O)(=O)CC3)C(F)(F)F)cc2)cnc2cc(Cl)nn12` [NVS-MALT1]?
A: residual activity [1]: 87%; residual activity [2]: 100%; residual activity [3]: 66%; residual activity [4]: 100%; inhibition [5]: 6.13%; residual activity [6]: 100%; residual activity [7]: 93%; residual activity [8]: 100%; residual activity [9]: 76%; residual activity [10]: 88%; residual activity [11]: 100%; residual activity [12]: 100%; residual activity [13]: 77%; residual activity [14]: 88%; residual activity [15]: 80%; residual activity [16]: 66%; residual activity [17]: 91%; residual activity [18]: 82%; residual activity [19]: 94%; residual activity [20]: 100%; residual activity [21]: 59%; residual activity [22]: 88%; residual activity [23]: 100%; residual activity [24]: 100%; residual activity [25]: 66%; residual activity [26]: 100%; inhibition [27]: 14.6%; residual activity [28]: 100%; residual activity [29]: 100%; residual activity [30]: 95%; residual activity [31]: 94%; residual activity [32]: 84%; residual activity [33]: 79%; residual activity [34]: 83%; residual activity [35]: 91%; residual activity [36]: 39%; inhibition [37]: -3.94%; residual activity [38]: 100%; residual activity [39]: 95%; residual activity [40]: 97%; residual activity [41]: 85%; residual activity [42]: 87%; residual activity [43]: 100%; residual activity [44]: 71%; residual activity [45]: 100%; residual activity [46]: 86%

Q: For `CO[C@@H](C)c1c(Nc2ccc([C@@H](N(C)C(=O)C3CCS(=O)(=O)CC3)C(F)(F)F)cc2)cnc2cc(Cl)nn12` [NVS-MALT1-C], which residual activity [1] is on record?
A: The residual activity was 86%.

Q: And the residual activity [2]?
A: The residual activity was 100%.

Q: What about the residual activity [3] of the same compound?
A: The residual activity was 82%.

Q: And the residual activity [4]?
A: Its residual activity is 100%.

Q: And the inhibition [5]?
A: Its inhibition is 6.39%.

Q: And the residual activity [6]?
A: Its residual activity is 100%.

Q: And the residual activity [7]?
A: The residual activity was 99%.

Q: What about the residual activity [8] of the same compound?
A: The residual activity was 100%.

Q: What about the residual activity [9] of the same compound?
A: Its residual activity is 92%.

Q: What about the residual activity [10] of the same compound?
A: The residual activity was 94%.

Q: And the residual activity [11]?
A: The residual activity was 100%.

Q: What about the residual activity [12] of the same compound?
A: Its residual activity is 100%.

Q: And the residual activity [13]?
A: The residual activity was 100%.

Q: What about the residual activity [14] of the same compound?
A: Its residual activity is 92%.

Q: What about the residual activity [15] of the same compound?
A: The residual activity was 93%.

Q: What about the residual activity [16] of the same compound?
A: The residual activity was 59%.

Q: And the residual activity [17]?
A: Its residual activity is 58%.

Q: What about the residual activity [18] of the same compound?
A: Its residual activity is 85%.

Q: What about the residual activity [19] of the same compound?
A: Its residual activity is 97%.

Q: What about the residual activity [20] of the same compound?
A: Its residual activity is 100%.

Q: What about the residual activity [21] of the same compound?
A: Its residual activity is 52%.

Q: And the residual activity [22]?
A: Its residual activity is 89%.

Q: What about the residual activity [23] of the same compound?
A: Its residual activity is 99%.

Q: What about the residual activity [24] of the same compound?
A: The residual activity was 100%.

Q: What about the residual activity [25] of the same compound?
A: Its residual activity is 72%.

Q: And the residual activity [26]?
A: Its residual activity is 84%.

Q: And the inhibition [27]?
A: Its inhibition is 7.57%.

Q: And the residual activity [28]?
A: The residual activity was 100%.

Q: What about the residual activity [29] of the same compound?
A: The residual activity was 100%.

Q: And the residual activity [30]?
A: Its residual activity is 88%.

Q: And the residual activity [31]?
A: The residual activity was 92%.

Q: And the residual activity [32]?
A: The residual activity was 91%.

Q: And the residual activity [33]?
A: The residual activity was 89%.

Q: What about the residual activity [34] of the same compound?
A: The residual activity was 100%.

Q: What about the residual activity [35] of the same compound?
A: Its residual activity is 94%.

Q: What about the residual activity [36] of the same compound?
A: Its residual activity is 96%.

Q: What about the inhibition [37] of the same compound?
A: Its inhibition is 9.74%.

Q: And the residual activity [38]?
A: Its residual activity is 100%.

Q: And the residual activity [39]?
A: Its residual activity is 84%.

Q: And the residual activity [40]?
A: The residual activity was 100%.

Q: And the residual activity [41]?
A: Its residual activity is 84%.

Q: What about the residual activity [42] of the same compound?
A: The residual activity was 87%.

Q: What about the residual activity [43] of the same compound?
A: The residual activity was 100%.

Q: And the residual activity [44]?
A: Its residual activity is 65%.

Q: And the residual activity [45]?
A: Its residual activity is 100%.

Q: What about the residual activity [46] of the same compound?
A: Its residual activity is 100%.
